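Following 48 hours of exposure in 96-well plates, responses at five concentrations were used to interpolate endpoints linearly. The concentration for 50% growth inhibition is given as GI50.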 Active and inactive are the calls of the source. Rule as the data show it: active = GI50 up to about 1.1 µM and inactive = higher.
Key:
Test in all cases: NCI anticancer screen, dose series, 48 h
OVCAR-8 = system: OVCAR-8
OVCAR-5 = system: OVCAR-5
K562 = system: K562
UACC-257 = system: UACC-257
NCI/ADR-RES = system: NCI/ADR-RES
RPMI-8226 = system: RPMI-8226
RXF 393 = system: RXF 393
U-251 = system: U-251
786-0 = system: 786-0
MOLT-4 = system: MOLT-4
HCT-15 = system: HCT-15
MDA-MB-231 = system: MDA-MB-231
NCI-H226 = system: NCI-H226
OVCAR-3 = system: OVCAR-3
Malme-3M = system: Malme-3M
SK-MEL-28 = system: SK-MEL-28
LOX IMVI = system: LOX IMVI
SF-295 = system: SF-295
OVCAR-4 = system: OVCAR-4
T47D = system: T47D

SMILES	GI50 (OVCAR-8)	GI50 (OVCAR-5)	GI50 (K562)	GI50 (UACC-257)	GI50 (NCI/ADR-RES)	GI50 (RPMI-8226)	GI50 (RXF 393)	GI50 (U-251)	GI50 (786-0)	GI50 (MOLT-4)	GI50 (HCT-15)	GI50 (MDA-MB-231)	GI50 (NCI-H226)	GI50 (OVCAR-3)	GI50 (Malme-3M)	GI50 (SK-MEL-28)	GI50 (LOX IMVI)	GI50 (SF-295)	GI50 (OVCAR-4)	GI50 (T47D)
CCCCNc1nc(N)nc(Nc2ccc(Br)cc2)c1N=O	70.5 µM (inactive)	77.4 µM (inactive)	38.9 µM (inactive)	> 100 µM (inactive)	39.4 µM (inactive)	52 µM (inactive)	32.7 µM (inactive)	31.1 µM (inactive)	17.5 µM (inactive)	18.8 µM (inactive)	78 µM	41.8 µM (inactive)	> 100 µM (inactive)	56.5 µM (inactive)	> 100 µM (inactive)	> 100 µM (inactive)	31.6 µM (inactive)			
CC(=O)Oc1cc(C)c(OC(C)=O)c2c1[C@H]1CC[C@]3(C)[C@@H](OC(C)=O)CC[C@H]3[C@@H]1CC2	20.5 µM (inactive)	21.5 µM (inactive)	23.7 µM (inactive)	15.8 µM (inactive)	18.2 µM (inactive)	19.5 µM (inactive)	16.8 µM (inactive)	15.9 µM (inactive)	21.8 µM (inactive)	11.6 µM (inactive)	17.5 µM	17.1 µM (inactive)	> 10 µM (inactive)	18.2 µM (inactive)	17.4 µM (inactive)	16.4 µM (inactive)	15.8 µM (inactive)	20.7 µM (inactive)		
C/C(=N/NC(=S)Nc1cccc(Cl)c1)c1ccccn1	0.0834 µM (active)	0.0474 µM (active)	0.0324 µM (active)	< 0.0208 µM (active)	< 0.018 µM (active)	0.029 µM (active)	1.52 µM (inactive)	0.0885 µM (active)	0.562 µM (active)	< 0.0156 µM (active)	0.0588 µM	< 0.0172 µM (active)	0.213 µM (active)	0.0365 µM (active)	0.301 µM (active)	2.21 µM (inactive)	0.125 µM (active)	0.366 µM (active)	1.05 µM (active)	
COc1cc([C@@H]2c3cc4c(cc3[C@@H](NC(=O)c3ccc(OC(C)=O)cc3)C3COC(=O)[C@@H]32)OCO4)cc(OC)c1O (some centres not stated)	2.48 µM (inactive)	4.36 µM (inactive)	2.17 µM (inactive)	8.32 µM (inactive)		1.32 µM (inactive)	11.4 µM (inactive)	0.308 µM (active)	1.22 µM (inactive)	0.0298 µM (active)	9.95 µM		0.798 µM (active)	4.84 µM (inactive)	2.43 µM (inactive)	3.48 µM (inactive)	1.39 µM (inactive)	2.24 µM (inactive)	39.9 µM (inactive)	
CN(C)CC1CCCC/C1=N\OC(=O)c1ccccc1 (configuration not stated)	> 100 µM (inactive)	> 100 µM (inactive)	> 100 µM (inactive)	> 100 µM (inactive)		> 100 µM (inactive)	> 100 µM (inactive)	> 100 µM (inactive)	> 100 µM (inactive)	> 100 µM (inactive)	> 100 µM		> 100 µM (inactive)	> 100 µM (inactive)	> 100 µM (inactive)	> 100 µM (inactive)	> 100 µM (inactive)	> 100 µM (inactive)	> 100 µM (inactive)	
Cn1c(-c2ccccc2)cc(-c2ccc3c(c2)OCO3)c1-c1cccs1	> 100 µM (inactive)	> 100 µM (inactive)	> 100 µM (inactive)	> 100 µM (inactive)	> 100 µM (inactive)	> 100 µM (inactive)	> 100 µM (inactive)	> 100 µM (inactive)	> 100 µM (inactive)	> 100 µM (inactive)	> 100 µM		> 100 µM (inactive)	> 100 µM (inactive)		> 100 µM (inactive)	> 100 µM (inactive)	> 100 µM (inactive)	> 100 µM (inactive)	> 100 µM (inactive)
COc1nc2c(c(=O)[nH]1)N=C(c1ccccc1)CC(c1ccccc1)N2 (configuration not stated)	28.1 µM (inactive)	> 100 µM (inactive)	25.3 µM (inactive)	> 100 µM (inactive)	27.3 µM (inactive)	27.2 µM (inactive)	31 µM (inactive)	44.9 µM (inactive)	37.7 µM (inactive)	31.3 µM (inactive)		33 µM (inactive)	72.6 µM (inactive)	> 100 µM (inactive)	72.9 µM (inactive)	72.9 µM (inactive)	44.8 µM (inactive)	49.1 µM (inactive)	26.9 µM (inactive)	
Cc1ccc(S(=O)(=O)n2cnc(CC(NC(=O)C3CCC(=O)N3C(=O)OCc3ccccc3)C(=O)N3CCCC3C(=O)NN)c2)cc1 (configuration not stated)	> 100 µM (inactive)	> 100 µM (inactive)	> 100 µM (inactive)	> 100 µM (inactive)		> 100 µM (inactive)		> 100 µM (inactive)	> 100 µM (inactive)	> 100 µM (inactive)	> 100 µM	> 100 µM (inactive)	24.8 µM (inactive)		> 100 µM (inactive)	> 100 µM (inactive)				

Reference: ChEMBL document CHEMBL1201862, “PubChem BioAssay data set” (2004)
